Patent US20260102501A1, “ANTI-CANCER NUCLEAR HORMONE RECEPTOR-TARGETING COMPOUNDS” (Nuvation Bio Inc., priority 2022, published 2026)
Residue numbers refer to the chain shown, from its start. Where a name gives a salt, the structure may show the parent alone. Read-outs that look alike come from different tables or passages of the source.

Key:
[1] = test system: 22Rv1 cells; assay: Cell viability assay (CellTiterGlo); conditions: Homo sapiens, 22Rv1, 144 h, read-out: 22RV1 (IC50, nM)
[2] = test system: IEC6 cells; assay: Cell viability assay (CellTiterGlo); conditions: Rattus norvegicus, IEC-6, 144 h, read-out: IEC-6 (IC50, nM)
[3] = test system: LNCap cells; assay: Cell viability assay (CellTiterGlo); type: cell-based; conditions: Homo sapiens, 144 h
[4] = target: T1, full-length androgen receptor (HEK293 cells stably expressing) (Homo sapiens, UniProt P10275); assay: AR antagonism assay (luciferase reporter)
T1 sequence (P10275 1-920): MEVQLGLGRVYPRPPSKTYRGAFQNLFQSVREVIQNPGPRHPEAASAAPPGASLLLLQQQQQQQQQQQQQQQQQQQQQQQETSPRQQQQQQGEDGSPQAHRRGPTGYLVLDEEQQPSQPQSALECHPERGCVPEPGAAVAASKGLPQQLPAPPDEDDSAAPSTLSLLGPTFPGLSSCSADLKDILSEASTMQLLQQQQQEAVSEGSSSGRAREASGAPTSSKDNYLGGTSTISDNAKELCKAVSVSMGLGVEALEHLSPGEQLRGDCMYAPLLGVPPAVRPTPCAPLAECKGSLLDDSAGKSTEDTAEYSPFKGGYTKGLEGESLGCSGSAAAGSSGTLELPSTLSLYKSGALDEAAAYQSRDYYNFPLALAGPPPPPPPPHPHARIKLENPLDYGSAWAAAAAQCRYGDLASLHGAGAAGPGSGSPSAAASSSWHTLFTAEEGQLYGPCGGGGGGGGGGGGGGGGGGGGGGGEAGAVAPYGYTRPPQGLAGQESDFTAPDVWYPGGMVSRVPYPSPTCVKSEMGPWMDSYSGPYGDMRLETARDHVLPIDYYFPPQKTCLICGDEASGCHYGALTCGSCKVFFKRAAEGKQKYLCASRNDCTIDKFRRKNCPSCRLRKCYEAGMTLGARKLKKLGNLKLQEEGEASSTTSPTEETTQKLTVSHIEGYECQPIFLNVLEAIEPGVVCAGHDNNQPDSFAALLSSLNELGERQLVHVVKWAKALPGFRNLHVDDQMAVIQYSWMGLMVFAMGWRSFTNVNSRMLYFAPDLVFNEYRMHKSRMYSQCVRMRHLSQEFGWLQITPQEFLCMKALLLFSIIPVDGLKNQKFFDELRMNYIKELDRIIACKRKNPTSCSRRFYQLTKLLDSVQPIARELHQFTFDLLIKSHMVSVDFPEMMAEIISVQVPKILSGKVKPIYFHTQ

[5] = target: T2, AR (cytosol from LnCaP cells) (Homo sapiens, UniProt P10275, T878A); assay: AR binding assay (3H-R1881 displacement)
T2 sequence (P10275 1-920 T878A): T1 sequence (P10275 1-920) with T878A
Protocol: The plate was then centrifuged at 3000 rpm for 30 minutes at 4° C.

[6] = 6 days incubation, CellTiterGlo, read-out: LNCap (IC50)

Structure (SMILES) | IC50 [1] [nM] | IC50 [2] [nM] | IC50 ([3]; read-out: LNCap (IC50, nM)) [nM] | IC50 [4] [nM] | IC50 [5] [nM] | IC50 [3, 6] [nM]
CC[C@@]1(O)C(=O)OCc2c1cc1n(c2=O)Cc2cc3c(CN4CCN(C(=O)C5CCN(c6ccc(C(=O)N[C@H]7CC[C@H](Oc8ccc(C#N)c(Cl)c8)CC7)nn6)CC5)CC4)c(OC(=O)N(C(C)C)C(C)C)ccc3nc2-1 [Compound 1, (S)-10-((4-(1-(6-(((1r,4r)-4-(3-Chloro-4-cyanophenoxy)cyclohexyl)carbamoyl)pyridazin-3-yl)piperidine-4-carbonyl)piperazin-1-yl)methyl)-4-ethyl-4-hydroxy-3,14-dioxo-3,4,12,14-tetrahydro-1H-pyrano[3′,4′:6,7]indolizino[1,2-b]quinolin-9-yl Diisopropylcarbamate] | > 1000 | > 1000 | > 1000 | > 1000 | 101 to 1000 | –
CC[C@@]1(O)C(=O)OCc2c1cc1n(c2=O)Cc2cc3c(CN(C)C)c(OC(=O)N4C[C@H](C)N(CC5CCN(c6ccc(C(=O)N[C@H]7CC[C@H](Oc8ccc(C#N)c(Cl)c8C)CC7)nn6)CC5)C[C@H]4C)ccc3nc2-1 [Compound 32, (S)-10-((Dimethylamino)methyl)-4-ethyl-4-hydroxy-3,14-dioxo-3,4,12,14-tetrahydro-1H-pyrano[3′,4′:6,7]indolizino[1,2-b]quinolin-9-yl (2R,5S)-4-((1-(6-(((1r,4r)-4-(3-Chloro-4-cyano-2-methylphenoxy)cyclohexyl)carbamoyl)pyridazin-3-yl)piperidin-4-yl)methyl)-2,5-dimethylpiperazine-1-carboxylate Formate] | 101 to 1000 | > 1000 | 101 to 1000 | 101 to 1000 | 101 to 1000 | –
CC[C@@]1(O)C(=O)OCc2c1cc1n(c2=O)Cc2cc3c(CN(C)C)c(OC(=O)N4C[C@H](C)N(CCCCCCN(C)C5CCN(c6ccc(C(=O)N[C@H]7CC[C@H](Oc8ccc(C#N)c(Cl)c8C)CC7)nn6)CC5)C[C@H]4C)ccc3nc2-1 [Compound 33, (S)-10-((Dimethylamino)methyl)-4-ethyl-4-hydroxy-3,14-dioxo-3,4,12,14-tetrahydro-1H-pyrano[3′,4′:6,7]indolizino[1,2-b]quinolin-9-yl (2R,5S)-4-(6-((1-(6-(((1r,4r)-4-(3-chloro-4-cyano-2-methylphenoxy)cyclohexyl)carbamoyl)pyridazin-3-yl)piperidin-4-yl)(methyl)amino)hexyl)-2,5-dimethylpiperazine-1-carboxylate Formate] | 101 to 1000 | > 1000 | 10 to 100 | > 1000 | < 10 | –
CC[C@@]1(O)C(=O)OCc2c1cc1n(c2=O)Cc2cc3c(CN4CCN(C(=O)CCCCCC5CCN(c6ccc(C(=O)N[C@H]7CC[C@H](N(C)c8ccc(C#N)c(Cl)c8)CC7)nn6)CC5)CC4)cccc3nc2-1 [Compound 43] | 101 to 1000 | > 1000 | – | > 1000 | 10 to 100 | 101 to 1000
CC[C@@]1(O)C(=O)OCc2c1cc1n(c2=O)Cc2cc3c(CN4CCN(CCCCCCC5CCN(c6ccc(C(=O)N[C@H]7CC[C@H](Oc8ccc(C#N)c(Cl)c8C)CC7)nn6)CC5)CC4)cccc3nc2-1 [Compound 44, N-((1r,4r)-4-(3-chloro-4-cyano-2-methylphenoxy)cyclohexyl)-6-(4-(6-(4-(((S)-4-ethyl-4-hydroxy-3,14-dioxo-3,4,12,14-tetrahydro-1H-pyrano[3′,4′:6,7]indolizino[1,2-b]quinolin-10-yl)methyl)piperazin-1-yl)hexyl)piperidin-1-yl)pyridazine-3-carboxamide] | 101 to 1000 | > 1000 | – | > 1000 | 10 to 100 | 101 to 1000
CC[C@@]1(O)C(=O)OCc2c1cc1n(c2=O)Cc2cc3c(CN(C)C)c(OC(=O)N4CCN(CCCCCCO[C@H]5CC[C@H]6[C@@H]7CCC8=CC(=O)CCC8=C7CC[C@]56C)CC4)ccc3nc2-1 [Compound 45, (S)-10-((dimethylamino)methyl)-4-ethyl-4-hydroxy-3,14-dioxo-3,4,12,14-tetrahydro-1H-pyrano[3′,4′:6,7]indolizino[1,2-b]quinolin-9-yl 4-(6-(((8S,13S,14S,17S)-13-methyl-3-oxo-2,3,6,7,8,11,12,13,14,15,16,17-dodecahydro-1H-cyclopenta[a]phenanthren-17-yl)oxy)hexyl)piperazine-1-carboxylate] | 10 to 100 | 101 to 1000 | 10 to 100 | 101 to 1000 | 10 to 100 | –
CC[C@@]1(O)C(=O)OCc2c1cc1n(c2=O)Cc2cc3c(CN(C)C)c(OC(=O)N4C[C@H](C)N(CC5CCN(c6ccc(C(=O)N[C@H]7CC[C@H](N(C)c8ccc(C#N)c(Cl)c8)CC7)nn6)CC5)C[C@H]4C)ccc3nc2-1 [Compound No. 20, (S)-10-((Dimethylamino)methyl)-4-ethyl-4-hydroxy-3,14-dioxo-3,4,12,14-tetrahydro-1H-pyrano[3′,4′:6,7]indolizino[1,2-b]quinolin-9-yl (2R,5S)-4-((1-(6-(((1r,4r)-4-((3-chloro-4-cyanophenyl)-(methyl)amino)cyclohexyl)carbamoyl)pyridazin-3-yl)piperidin-4-yl)methyl)-2,5-dimethylpiperazine-1-carboxylate] | 101 to 1000 | > 1000 | 101 to 1000 | > 1000 | 10 to 100 | –
CC[C@@]1(O)C(=O)OCc2c1cc1n(c2=O)Cc2c-1nc1cc(F)c(C)c3c1c2[C@@H](NC(=O)CN1CCN(C(=O)CCCCCC2CCN(c4ccc(C(=O)N[C@H]5CC[C@H](N(C)c6ccc(C#N)c(Cl)c6)CC5)nn4)CC2)CC1)CC3 [Compound No. 46] | 101 to 1000 | > 1000 | – | > 1000 | 101 to 1000 | 101 to 1000
CC[C@@]1(O)C(=O)OCc2c1cc1n(c2=O)Cc2c-1nc1cc(F)c(C)c3c1c2[C@@H](NC(=O)CN1CCN(CCCCCCC2CCN(c4ccc(C(=O)N[C@H]5CC[C@H](Oc6ccc(C#N)c(Cl)c6C)CC5)nn4)CC2)CC1)CC3 [Compound No. 48, N-((1r,4r)-4-(3-chloro-4-cyano-2-methylphenoxy)cyclohexyl)-6-(4-(6-(4-(2-(((1S,9S)-9-ethyl-5-fluoro-9-hydroxy-4-methyl-10,13-dioxo-2,3,9,10,13,15-hexahydro-1H,12H-benzo[de]pyrano[3′,4′:6,7]indolizino[1,2-b]quinolin-1-yl)amino)-2-oxoethyl)piperazin-1-yl)hexyl)piperidin-1-yl)pyridazine-3-carboxamide] | 101 to 1000 | > 1000 | – | 101 to 1000 | 10 to 100 | 101 to 1000
CC[C@@]1(O)C(=O)OCc2c1cc1n(c2=O)Cc2cc3c(CN4CCN(C(=O)CCCCCC5CCN(c6ccc(C(=O)N[C@H]7CC[C@H](N(C)c8ccc(C#N)c(Cl)c8)CC7)nn6)CC5)CC4)c(O)ccc3nc2-1 [Compound No. 49] | 10 to 100 | > 1000 | – | > 1000 | 10 to 100 | 10 to 100
